Source: US11325937B2, “Glycoside compound and preparation method therefor, composition, application, and intermediate” (SHANGHAI HUTCHISON PHARMACEUTICALS LIMITED, priority 2018, dated 2022)

What was measured:
[1] = tested on: VEGF-A mRNA expression in macrophages (RAW264.7); test: In vitro macrophage experiment: activity of compounds to promote VEGF-A mRNA expression (RT-qPCR); format: cell-based; details: Mus musculus, RAW264.7 macrophages, 3 h, relative expression, no drug = 1, read-out: Expression level of VEGF-A mRNA; for fold induction at 500 µM: 0.5 mM; for fold induction at 1000 µM: 1 mM; for fold induction at 2000 µM: 2 mM; for fold induction at 3000 µM: 3 mM; for fold induction at 4000 µM: 4 mM
Procedure, shortened: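 RAW264.7 macrophages were exposed to test compounds at various concentrations for 3 h at 37° C. VEGF-A mRNA was measured by SYBR Green RT-qPCR, normalized to β-Actin, and expressed as 2^−ΔΔCt relative to untreated cells (=1). Activity is the maximal fold induction, with ≥4 as hit criterion.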

VEGF-A mRNA = test: Sponge implanted animal model of inflammatory angiogenesis: VEGF-A mRNA expression; format: in vivo, male C57/BL6 mice; details: for activity in promoting VEGF-A mRNA expression compared with Salvianolate (in words): positive control Salvianolate 60 mg/kg/d, sponge implanted mice
Source text: The target pro-angiogenic compounds TG-052, TG-053, TG-054, TG-028, and TG-055 obtained in Effect Example 1 that perform well at the cellular level were further screened for the active molecules that promote VEGF-A mRNA expression in the “sponge implanted animal model” of inflammatory angiogenesis. […] This model can well reflect the expression of VEGF-A mRNA in macrophages recruited around inflammation.
A sponge implanted mouse model was established following the method as described in Zhang J, Modi Y, and Yarovinsky T, et al. Macrophage β2 integrin-mediated, HuR-dependent stabilization of angiogenic factor-encoding mRNAs in inflammatory angiogenesis. [J]. American Journal of Pathology, 2012. 180(4): 1751-1760. The mice used in the present invention was male C57/BL6 mice aged 6-8 weeks and weighing 20-25 g, purchased from Shanghai SLAC Laboratory Animal Co., Ltd, Production License No: SCXK (Shanghai) 2013-0016. The compound screened in Effect Example 1 was weighed according to the amount intended to be used in two weeks, and then mixed with a gel matrix and a solvent to prepare a sustained-release gel of the compound (see Patent Application No.: CN201610168493.9 for the details of the preparation method of the sustained-release gel and the model establishment and detection methods). The specific steps were as follows. A certain amount of the compound obtained in Effect Example 1 was weighed into a 1.5 mL EP tube, and then a certain amount of poly-L-lactic acid (PLLA) with a weight average molecular weight of less than 10,000 was weighed and mixed with the compound (at a weight ratio of the compound to PLLA of 0.5:1 to 2:1). Finally a certain amount of DMSO (less than 100 microliters) was added, spun, mixed well, and then sealed with a sealing film. After continuous ultrasonication at 200 W and 25° C. for 5 h, a sustained-release gel of the compound was obtained, which was stored at 4° C. for later use.
The prepared sustained-release gel can release the drug completely within 2 weeks. The sustained-release gel and sponge were both subcutaneously implanted in the mice at the back. After 2 weeks, the sponge was taken out, and the residual tissue and fur were removed. The sponge was transferred to a cell culture plate containing 10 mL of DMEM medium containing collagenase (Collagenase:DMEM=10 mg/10 mL), cut, and incubated for 1 h in a cell incubator. Then the culture medium containing sponge debris was filtered, and the resulting filtrate was centrifuged. The supernatant was discarded, and 500 μL of Trizol reagent was added to the pellet, and mixed uniformly by blowing. Then the liquid was transferred to a 1.5 mL EP tube, and stored at −80° C. RNA was extracted according to a conventional method, and the RNA concentration was determined using a microvolume nucleic acid and protein analyzer (Nanodrop2000c). The required volume V of RNA was calculated according to the RNA concentration, and the RNA reverse transcription reaction system was prepared according to Table 1. Then RNA reverse transcription (cDNA synthesis) was carried out according to the conditions described in Table 2. The resulting cDNA was used to prepare a fluorescence quantitative qPCR reaction solution according to Table 3. The fluorescence quantitative qPCR reaction conditions were set according to Table 4, and the fluorescence quantitative PCR reaction was performed using cDNA from the reverse transcription reaction as a template. The relative expression level 2^−ΔΔCt of the target gene was calculated from the Ct value of each sample with the blank group as a control and β-Actin as an internal reference. The expression level of VEGF-A mRNA in the cells extracted from the sponge was observed after 2 weeks. […]

[2] = tested on: rats with middle cerebral artery occlusion (MCAO); test: Acute cerebral infarction model in rats with middle cerebral artery occlusion (MCAO); format: in vivo, male SD rats; details: Rattus norvegicus, ip, 72 h, MCAO, intraperitoneal injection, TTC staining after 3 days, read-out: ED50 for infarction inhibition rate (%)
Source text: (§1) After obtaining the active molecules that can promote the expression of VEGF-A mRNA in the animal model of inflammatory angiogenesis, a rat model of cerebral infarction was used for further verification. Following the method as described in Longa, E. Z., Longa, E. Z., Weinstein, P. R., Carlson, S. & Commin, R. Reversible middle cerebral artery occlusion without craniectomy in rats. [J]. Stroke, 1989. 1: 84-91, an acute cerebral infarction model was established in rats with middle cerebral artery occlusion (MCAO); and following the method as described in C. dela Torre, T. Fortin, G. A. S. Park, K. S. Butler, P. Kozlowski, B. A. Pappas, H. de Socarraz, J. K. Saunders and M. T. Richard. [J]. Brain Research, 1992. 582:186-195, a chronic cerebral ischemia model was established in rats with permanent ligation of bilateral common carotid arteries (2VO). The inhibition on cerebral infarction and neuroprotection for brain injury of the active molecules screened in Effect Example 2 were verified.
The control drugs were: Edaravone (purchased from Zhejiang Shengtong Biotechnology Co., Ltd.), Clopidogrel bisulfate (purchased from Wuhan Yuancheng Gongchuang Technology Co., Ltd.), and Salvianolate (purchased from Henan Provincial People's Hospital). Clopidogrel bisulfate is a platelet aggregation inhibitor, and Edaravone is a brain protectant (free radical scavenger). The MCAO model of rats was made by the thread occlusion method. The rats used in this effect example were male SD rats weighing 280-320 grams, purchased from Shanghai SLAC Laboratory Animal Co., Ltd. Five SD (Sprague Dawley) rats in each group were administered by intraperitoneal injection, 2 h before surgery, and every 24 h after modeling.
Three days later, the brain was taken, and the rat brain was stained with TTC (2,3,5-triphenyltetrazolium chloride, to detect the cell viability) and then photographed. Infarction rate (%)=(Non-infarction area of right brain section−non-infarction area of left brain section)/total area of brain section*100%. According to t tests, *P<0.05, **P<0.01, ***P<0.001 compared with the model group (MCAO). Infarction inhibition rate (%) at different doses=(infarction rate of model group-infarction rate of treatment group)/infarction rate of model group*100%. The infarction inhibition rate at different doses was plotted, and the ED50 of the drug was calculated.
Moreover, the body weight of the rats was recorded. The rate of body weight change was calculated according to a formula: Rate of body weight change (%)=(final weight-initial weight)/[…].
Three days after the acute cerebral infarction model was established in rats with MCAO, the test rats were scored for neurological function according to the Longa nerve scoring standard.
Three days after the acute cerebral infarction model of MCAO was established in rats, the intact brain tissue was taken out, olfactory bulb and the brain tissue that is 4 mm in front of the frontal pole was removed, and the immediately adjacent brain tissue of 2 mm thick was taken for water content measurement in the brain. The water content in brain tissue is calculated by the formula: (WW−DW)/WW×100%, where WW is the wet weight and DW is the dry weight. Three days after the acute cerebral infarction model of MCAO was established in rats, the brain tissue was stained with Evans Blue (EB, a commonly used azo dye preparation) to evaluate the permeability across the blood-brain barrier (BBB), so as to evaluate the integrity of blood-brain barrier. Both experiments were tested with the optimal dose of each drug previously determined: TG-028 (5 mg/Kg), Salvianolate (20 mg/Kg), Clopidogrel bisulfate (40 mg/Kg), Edaravone (40 mg/Kg).

[3] = tested on: rats with permanent ligation of bilateral common carotid arteries (2VO); test: Chronic cerebral ischemia model in rats with permanent ligation of bilateral common carotid arteries (2VO); format: in vivo
Source text: as §1
In the later period of the present invention, a chronic cerebral ischemia model was established in rats with permanent ligation of bilateral common carotid arteries (2VO). TG-028 (5 mg/kg) was administered to 5 rats in each group daily by intraperitoneal injection for 3 weeks. The effects of TG-028 and the control drug Edaravone (40 mg/kg) in the rat model of chronic cerebral ischemia were observed.
3 weeks after the establishment of the rat model of 2VO chronic cerebral ischemia, the Morris water maze experiment was performed on the test rats to determine the effects of drugs on animal learning and memory. The test rats were subjected to ambient positioning and memory training for 5 days. On Day 5 of the training, a positioning navigation experiment was carried out, and the duration for each group of rats from the time of entering the water from different water entry points facing the pool wall to the time of finding the platform, that is, the escape incubation period, was recorded. On Day 6, the platform was removed and a space exploration experiment was carried out. The swimming time of the rats in the target quadrant, the dwell time in the target quadrant, the distance in the target quadrant, and the number of passes through the platform were recorded in 120 s from the time of entering water from a quadrant opposing the target quadrant. The results of the water maze positioning and navigation experiment are shown in FIG. 8 (where Sham is a sham operation group).
After permanent ligation of the bilateral common carotid arteries, a 5-day positioning training was carried out, and […] Morris water maze space exploration experiment was performed after the training.

Row | Compound | fold induction at 100 µM ([1]; 0.1 mM) | fold induction at 500 µM [1] | fold induction at 1000 µM [1] | fold induction at 2000 µM [1] | fold induction at 3000 µM [1] | expression of VEGF-A mRNA (in words) (VEGF-A mRNA; various doses, alone, FIG. 19) | fold induction at 4000 µM [1] | increase of expression level of VEGF-A mRNA compared with blank control without drugs (VEGF-A mRNA; 41.37 mg/kg/d, sustained-release gel, 2 weeks, mice) | activity in promoting VEGF-A mRNA expression compared with Salvianolate (in words) (VEGF-A mRNA; 2 weeks) | ED50 [2] [mg/kg] | HE staining and Nissl staining of brain sections, hippocampal CA3 neurons (in words) ([3]; 3 weeks after chronic cerebral ischemia, compared with 2VO+NaCl, FIG. 10) | Morris water maze positioning and navigation: escape incubation period and total distance (in words) ([3]; TG-028 5 mg/kg, Edaravone 40 mg/kg, 3 weeks of administration, FIG. 8) | Morris water maze space exploration: number of passes through the platform compared with 2VO+NaCl group ([3]; TG-028 5 mg/kg, Edaravone 40 mg/kg, 3 weeks, FIG. 9) | change in body weight compared with sham operation group (in words) ([3]; TG-028 5 mg/kg, Edaravone 40 mg/kg, i.p. daily, after 1 week, FIG. 7)
1 | OC[C@H]1O[C@@H](OCCc2ccc(O)cc2)[C@H](O)[C@@H](O)[C@@H]1O [TG-056, salidroside, reference compound] | 0.72 | 1.74 | 2.24 | 6.7 | 2.31 | very low expression of VEGF-A mRNA |  |  |  |  |  |  |  | 
2 | COc1ccc(CO[C@@H]2O[C@H](CO)[C@@H](O)[C@H](O)[C@H]2O)cc1 [TG-052] |  | 19.7 | 0.93 | 2.64 | 2.69 |  | 3.51 | about 3 times | comparable to that of Salvianolate |  |  |  |  | 
3 | COc1ccc(CCCO[C@@H]2O[C@H](CO)[C@@H](O)[C@H](O)[C@H]2O)cc1 [TG-054] |  | 3.63 | 12.4 | 6.5 | 1.21 |  | 2.01 |  | slightly lower activity in promoting the VEGF-A mRNA expression |  |  |  |  | 
4 | CC1=NN(c2ccccc2)C(=O)C1 [Edaravone, reference compound] |  |  |  |  |  |  |  |  |  | 25.7 | cell morphology in the 2VO+Edaravone group is also improved | different from those of the 2VO+NaCl group | no significant difference | no significant weight increase compared with the sham operation group
5 | COc1ccc(CCO[C@@H]2O[C@H](CO)[C@@H](O)[C@H](O)[C@H]2O)cc1 [TG-053] |  | 11.2 | 13.4 | 6.82 | 1.32 |  | 1.8 |  | slightly lower activity in promoting the VEGF-A mRNA expression |  |  |  |  | 
